Results as given in patent publication US9169254B2, “Spiroimidazolone derivative” (Chugai Seiyaku Kabushiki Kaisha, priority 2009, dated 2015).

These molecules were tested against T1, human PTH1 receptor (Homo sapiens, UniProt Q03431) (assay: In vitro cAMP signal activity in HKRK-B7 cells (LLC-PK1 cells overexpressing the human PTH1 receptor)). Details: HKRK-B7 cells; compound at 1×10^−3 M; cAMP produced as percentage of that produced by hPTH(1-34) at 100 nM.
T1 sequence (Q03431 27-593): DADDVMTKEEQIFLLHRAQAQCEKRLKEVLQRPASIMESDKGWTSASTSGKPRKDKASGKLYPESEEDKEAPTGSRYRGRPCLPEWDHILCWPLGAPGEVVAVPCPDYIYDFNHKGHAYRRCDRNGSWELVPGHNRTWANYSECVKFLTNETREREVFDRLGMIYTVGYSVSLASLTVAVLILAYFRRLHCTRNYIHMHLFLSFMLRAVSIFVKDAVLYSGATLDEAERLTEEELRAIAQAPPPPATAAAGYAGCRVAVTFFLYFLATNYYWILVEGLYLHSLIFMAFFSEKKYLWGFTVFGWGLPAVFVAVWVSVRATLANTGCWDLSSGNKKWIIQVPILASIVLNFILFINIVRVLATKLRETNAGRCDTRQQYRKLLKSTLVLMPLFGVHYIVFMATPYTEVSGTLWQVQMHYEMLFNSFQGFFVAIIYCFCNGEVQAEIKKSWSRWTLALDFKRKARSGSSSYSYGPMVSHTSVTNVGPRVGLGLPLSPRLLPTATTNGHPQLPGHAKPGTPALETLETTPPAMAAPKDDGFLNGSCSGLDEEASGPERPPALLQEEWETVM
Format: cell-based

| Structure (SMILES) | cAMP production activity (%) |
| --- | --- |
| Cc1cc(C(=O)N2CCC(O)(CF)CC2)cc(C)c1/C=C/S(=O)(=O)N1CCC2(CC1)N=C(c1ccc(OCC(F)(F)F)c(Cl)c1)NC2=O [Compound 1246, 2-[3-chloro-4-(2,2,2-trifluoro-ethoxy)-phenyl]-8-{(E)-2-[4-(4-fluoromethyl-4-hydroxy-piperidine-1-carbonyl)-2,6-dimethyl-phenyl]-ethenesulfonyl}-1,3,8-triaza-spiro[4.5]dec-1-en-4-one] | 85 |
| Cc1cc(C(=O)N2CCC(O)(CF)CC2)cc(C)c1/C=C/S(=O)(=O)N1CCC2(CC1)N=C(c1ccc(OCC(F)(F)C(F)F)c(Cl)c1)NC2=O [Compound 1247, 2-[3-chloro-4-(2,2,3,3-tetrafluoro-propoxy)-phenyl]-8-{(E)-2-[4-(4-fluoromethyl-4-hydroxy-piperidine-1-carbonyl)-2,6-dimethyl-phenyl]-ethenesulfonyl}-1,3,8-triaza-spiro[4.5]dec-1-en-4-one] | 70 |
| Cc1cc(C(=O)N2CCC(O)(CF)CC2)cc(C)c1/C=C/S(=O)(=O)N1CCC2(CC1)N=C(c1ccc(OCC(F)(F)F)c(C(F)(F)F)c1)NC2=O [Compound 1248, 8-{(E)-2-[4-(4-fluoromethyl-4-hydroxy-piperidine-1-carbonyl)-2,6-dimethyl-phenyl]-ethenesulfonyl}-2-[4-(2,2,2-trifluoro-ethoxy)-3-trifluoromethyl-phenyl]-1,3,8-triaza-spiro[4.5]dec-1-en-4-one] | 81 |
| Cc1cc(C(=O)N2CCC(O)(CF)CC2)cc(C)c1/C=C/S(=O)(=O)N1CCC2(CC1)N=C(c1ccc(OCC(F)(F)C(F)(F)F)c(C(F)(F)F)c1)NC2=O [Compound 1249, 8-{(E)-2-[4-(4-fluoromethyl-4-hydroxy-piperidine-1-carbonyl)-2,6-dimethyl-phenyl]-ethenesulfonyl}-2-[4-(2,2,3,3,3-pentafluoro-propoxy)-3-trifluoromethyl-phenyl]-1,3,8-triaza-spiro[4.5]dec-1-en-4-one] | 62 |
| Cc1cc(C(=O)N2CCC(O)(CF)CC2)cc(C)c1/C=C/S(=O)(=O)N1CCC2(CC1)N=C(c1ccc(OCCCC(F)(F)F)c(C(F)(F)F)c1)NC2=O [Compound 1250, 8-{(E)-2-[4-(4-fluoromethyl-4-hydroxy-piperidine-1-carbonyl)-2,6-dimethyl-phenyl]-ethenesulfonyl}-2-[4-(4,4,4-trifluoro-butoxy)-3-trifluoromethyl-phenyl]-1,3,8-triaza-spiro[4.5]dec-1-en-4-one] | 67 |
| Cc1cc(C(=O)N2CCC(O)(CF)CC2)cc(C)c1/C=C/S(=O)(=O)N1CCC2(CC1)N=C(c1ccc(OCC(F)(F)C(F)F)c(C(F)(F)F)c1)NC2=O [Compound 1251, 8-{(E)-2-[4-(4-fluoromethyl-4-hydroxy-piperidine-1-carbonyl)-2,6-dimethyl-phenyl]-ethenesulfonyl}-2-[4-(2,2,3,3-tetrafluoro-propoxy)-3-trifluoromethyl-phenyl]-1,3,8-triaza-spiro[4.5]dec-1-en-4-one] | 56 |
| Cc1cc(C(=O)N2CCC(O)(CF)CC2)cc(C)c1/C=C/S(=O)(=O)N1CCC2(CC1)N=C(c1ccc(OCCCC(F)(F)C(F)(F)F)c(C(F)(F)F)c1)NC2=O [Compound 1252, 8-{(E)-2-[4-(4-fluoromethyl-4-hydroxy-piperidine-1-carbonyl)-2,6-dimethyl-phenyl]-ethenesulfonyl}-2-[4-(4,4,5,5,5-pentafluoro-pentyloxy)-3-trifluoromethyl-phenyl]-1,3,8-triaza-spiro[4.5]dec-1-en-4-one] | 72 |
